{
  "source": "ChEMBL document CHEMBL3588849",
  "about": "“New indole-isoxazolone derivatives: Synthesis, characterisation and in vitro SIRT1 inhibition studies” (Bioorg Med Chem Lett, 2015)",
  "key": {"[1]": {"test_system": "HT-29", "assay": "Cytotoxicity against human HT-29 cells after 72 hrs by MTT assay", "type": "functional, cell-based", "conditions": "HT-29, 72 h"}, "[2]": {"test_system": "MDA-MB-231", "assay": "Cytotoxicity against human MDA-MB-231 cells after 72 hrs by MTT assay", "type": "functional, cell-based", "conditions": "MDA-MB-231, 72 h"}, "[3]": {"test_system": "MCF7", "assay": "Cytotoxicity against human MCF7 cells after 72 hrs by MTT assay", "type": "functional, cell-based", "conditions": "MCF7, 72 h"}, "[4]": {"target": "T1, NAD-dependent protein deacetylase sirtuin-1 (Homo sapiens, UniProt Q96EB6)", "T1 sequence (Q96EB6 whole entry)": "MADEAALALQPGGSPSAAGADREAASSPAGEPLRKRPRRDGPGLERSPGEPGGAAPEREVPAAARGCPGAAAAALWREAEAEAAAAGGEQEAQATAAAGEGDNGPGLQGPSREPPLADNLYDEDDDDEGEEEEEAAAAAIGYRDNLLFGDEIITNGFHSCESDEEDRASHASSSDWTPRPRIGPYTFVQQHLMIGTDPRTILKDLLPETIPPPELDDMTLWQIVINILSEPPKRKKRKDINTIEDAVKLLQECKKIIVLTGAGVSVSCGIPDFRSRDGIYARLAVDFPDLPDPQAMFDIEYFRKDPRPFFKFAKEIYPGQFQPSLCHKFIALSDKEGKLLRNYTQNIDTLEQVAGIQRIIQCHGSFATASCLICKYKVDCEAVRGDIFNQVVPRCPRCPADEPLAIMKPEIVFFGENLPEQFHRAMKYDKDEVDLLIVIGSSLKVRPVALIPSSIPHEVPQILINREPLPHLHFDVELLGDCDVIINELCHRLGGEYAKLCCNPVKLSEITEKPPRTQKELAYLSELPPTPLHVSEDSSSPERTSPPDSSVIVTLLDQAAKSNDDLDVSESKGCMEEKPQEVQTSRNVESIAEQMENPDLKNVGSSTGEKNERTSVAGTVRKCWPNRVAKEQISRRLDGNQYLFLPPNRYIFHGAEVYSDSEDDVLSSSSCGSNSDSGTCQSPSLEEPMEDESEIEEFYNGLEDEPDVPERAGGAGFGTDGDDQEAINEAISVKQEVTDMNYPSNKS", "assay": "Inhibition of SIRT1 (unknown origin) using AMC-Arg-His-Lys-Lys(Ac) substrate assessed as deacetylation of substrate by fluorimetric enzyme assay"}, "[5]": {"test_system": "HEK293", "assay": "(§1) Cytotoxicity against HEK293 cells after 72 hrs by MTT assay", "type": "cell-based", "conditions": "human, hek293, 72 h"}, "[6]": {"assay": "as §1", "type": "cell-based", "conditions": "human, HEK293 cells; read-out: GI"}},
  "data": [
    {"molecule": "CC1=NOC(=O)/C1=C/c1c(COCc2ccc(C(F)(F)F)cc2)n(C)c2ccc(F)cc12", "values": [
      {"measurement": "IC50", "setting": "[1]", "result": 4.82, "unit": "µM"},
      {"measurement": "IC50", "setting": "[2]", "result": 8.23, "unit": "µM"},
      {"measurement": "IC50", "setting": "[3]", "result": 7.72, "unit": "µM"},
      {"measurement": "IC50", "setting": "[4]", "result": 35.2, "unit": "µM"},
      {"measurement": "Activity", "setting": "[5]", "result": "Non-toxic"}
    ]},
    {"molecule": "Cn1c(COCc2ccc(C(F)(F)F)cc2)c(/C=C2/C(=O)ON=C2C(F)(F)F)c2cc(F)ccc21", "values": [
      {"measurement": "IC50", "setting": "[1]", "result": 2.59, "unit": "µM"},
      {"measurement": "IC50", "setting": "[2]", "result": 5.03, "unit": "µM"},
      {"measurement": "IC50", "setting": "[3]", "result": 5.51, "unit": "µM"},
      {"measurement": "IC50", "setting": "[4]", "result": 37.4, "unit": "µM"},
      {"measurement": "Activity", "setting": "[5]", "result": "Non-toxic"}
    ]},
    {"molecule": "CC1=NOC(=O)/C1=C/c1c(C(=O)NCc2ccc(C)cc2)n(C)c2ccc(F)cc12", "values": [
      {"measurement": "Activity", "setting": "[5]", "result": "Non-toxic"}
    ]},
    {"molecule": "CC1=NOC(=O)/C1=C/c1c(C(=O)NCc2ccc(OC(F)(F)F)cc2)n(C)c2ccc(F)cc12", "values": [
      {"measurement": "Activity", "setting": "[5]", "result": "Non-toxic"}
    ]},
    {"molecule": "CC1=NOC(=O)/C1=C/c1c(C(=O)Nc2ccc(OC(F)(F)F)cc2)n(C)c2ccc(F)cc12", "values": [
      {"measurement": "Activity", "setting": "[5]", "result": "Non-toxic"}
    ]},
    {"molecule": "CC1=NOC(=O)/C1=C/c1c(C(=O)NCc2ccc(F)cc2)n(C)c2ccc(F)cc12", "values": [
      {"measurement": "Activity", "setting": "[5]", "result": "Non-toxic"}
    ]},
    {"molecule": "Cn1c(C(=O)NCc2ccc(F)cc2)c(/C=C2/C(=O)ON=C2C(F)(F)F)c2cc(F)ccc21", "values": [
      {"measurement": "Activity", "setting": "[5]", "result": "Non-toxic"}
    ]},
    {"molecule": "CC1=NOC(=O)/C1=C/c1c(C(=O)N2CCOCC2)n(C)c2ccc(F)cc12", "values": [
      {"measurement": "Activity", "setting": "[5]", "result": "Non-toxic"}
    ]},
    {"molecule": "Cn1c(C(=O)N2CCOCC2)c(/C=C2/C(=O)ON=C2C(F)(F)F)c2cc(F)ccc21", "values": [
      {"measurement": "Activity", "setting": "[5]", "result": "Non-toxic"}
    ]},
    {"molecule": "CCN1CCN(C(=O)c2c(/C=C3/C(=O)ON=C3C)c3cc(F)ccc3n2C)CC1", "values": [
      {"measurement": "Activity", "setting": "[5]", "result": "Non-toxic"}
    ]},
    {"molecule": "CCN1CCN(C(=O)c2c(/C=C3/C(=O)ON=C3C(F)(F)F)c3cc(F)ccc3n2C)CC1", "values": [
      {"measurement": "inhibition at 72 h", "setting": "[6]", "result": 30, "unit": "%"}
    ]},
    {"molecule": "CC1=NOC(=O)/C1=C/c1c(COCc2cn(Cc3ccc(C(F)(F)F)cc3)nn2)n(C)c2ccc(F)cc12", "values": [
      {"measurement": "inhibition at 72 h", "setting": "[6]", "result": 30, "unit": "%"}
    ]},
    {"molecule": "CC1=NOC(=O)/C1=C/c1c(COCc2cn(Cc3ccc(OC(F)(F)F)cc3)nn2)n(C)c2ccc(F)cc12", "values": [
      {"measurement": "Activity", "setting": "[5]", "result": "Non-toxic"}
    ]},
    {"molecule": "Cn1c(COCc2cn(Cc3ccc(OC(F)(F)F)cc3)nn2)c(/C=C2/C(=O)ON=C2C(F)(F)F)c2cc(F)ccc21", "values": [
      {"measurement": "Activity", "setting": "[5]", "result": "Non-toxic"}
    ]},
    {"molecule": "Cn1c(COCc2cn(Cc3ccc([N+](=O)[O-])cc3)nn2)c(/C=C2/C(=O)ON=C2C(F)(F)F)c2cc(F)ccc21", "values": [
      {"measurement": "Activity", "setting": "[5]", "result": "Non-toxic"}
    ]},
    {"molecule": "CC1=NOC(=O)/C1=C/c1c(COCc2cn(Cc3ccc(C#N)cc3)nn2)n(C)c2ccc(F)cc12", "values": [
      {"measurement": "Activity", "setting": "[5]", "result": "Non-toxic"}
    ]},
    {"molecule": "Cn1c(COCc2cn(Cc3ccc(C#N)cc3)nn2)c(/C=C2/C(=O)ON=C2C(F)(F)F)c2cc(F)ccc21", "values": [
      {"measurement": "Activity", "setting": "[5]", "result": "Non-toxic"}
    ]},
    {"molecule": "CC1=NOC(=O)/C1=C/c1c(COCc2ccc(C#N)cc2)n(C)c2ccc(F)cc12", "values": [
      {"measurement": "Activity", "setting": "[5]", "result": "Non-toxic"}
    ]},
    {"molecule": "Nc1ccn([C@@H]2O[C@H](CO)[C@@H](O)C2(F)F)c(=O)n1", "note": "[GEMCITABINE]", "values": [
      {"measurement": "IC50", "setting": "[1]", "result": 0.52, "unit": "µM"},
      {"measurement": "IC50", "setting": "[2]", "result": 0.65, "unit": "µM"},
      {"measurement": "IC50", "setting": "[3]", "result": 0.15, "unit": "µM"}
    ]}
  ]
}
